Measured values from BindingDB's records for 0.1007/s00044-005-0126-y (University, Mississippi, 2005).

What was measured:
[1] = molecular target: T1, Cysteine proteinase falcipain 2a (Plasmodium falciparum, UniProt Q9NBD4); assay: In Vitro Inhibition Assay
T1 sequence (Q9NBD4 whole entry): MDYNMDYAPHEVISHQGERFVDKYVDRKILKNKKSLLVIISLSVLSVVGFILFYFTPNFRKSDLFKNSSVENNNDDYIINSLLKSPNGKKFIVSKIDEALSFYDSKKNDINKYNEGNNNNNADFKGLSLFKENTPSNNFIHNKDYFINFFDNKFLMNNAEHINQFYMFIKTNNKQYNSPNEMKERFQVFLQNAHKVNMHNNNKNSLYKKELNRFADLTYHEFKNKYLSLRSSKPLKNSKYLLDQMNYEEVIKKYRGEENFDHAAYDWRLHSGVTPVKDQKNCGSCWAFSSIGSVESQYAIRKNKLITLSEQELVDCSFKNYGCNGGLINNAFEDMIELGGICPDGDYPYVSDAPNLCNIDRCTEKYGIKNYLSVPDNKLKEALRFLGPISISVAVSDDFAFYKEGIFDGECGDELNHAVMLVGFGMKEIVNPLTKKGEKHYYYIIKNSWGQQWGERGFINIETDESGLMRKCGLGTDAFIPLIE
Method: (§1) In vitro antimalarial assay, antimalarial activity of the compounds was determined in vitro on chloroquine sensitive and resistant strains of plasmodium flaciparum as described earlier.

[2] = molecular target: T2, Cysteine proteinase falcipain 3 (Plasmodium falciparum (isolate 3D7), UniProt Q8IIL0); assay: In Vitro Inhibition Assay
T2 sequence (Q8IIL0 whole entry): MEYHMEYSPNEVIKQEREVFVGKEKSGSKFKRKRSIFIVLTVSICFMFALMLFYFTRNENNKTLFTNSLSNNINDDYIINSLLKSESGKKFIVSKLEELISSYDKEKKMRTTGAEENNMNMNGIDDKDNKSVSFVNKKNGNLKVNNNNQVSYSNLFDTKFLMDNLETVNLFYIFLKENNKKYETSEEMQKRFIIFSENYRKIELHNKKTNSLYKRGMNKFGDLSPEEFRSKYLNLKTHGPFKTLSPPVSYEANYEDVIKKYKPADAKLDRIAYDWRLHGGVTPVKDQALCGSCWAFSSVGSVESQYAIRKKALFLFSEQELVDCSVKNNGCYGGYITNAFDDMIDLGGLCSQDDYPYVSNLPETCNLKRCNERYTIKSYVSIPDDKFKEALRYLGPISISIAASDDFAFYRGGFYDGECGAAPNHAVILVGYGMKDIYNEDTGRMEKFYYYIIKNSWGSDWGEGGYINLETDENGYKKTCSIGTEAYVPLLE
Method: as §1

SMILES: CC(=O)NCCCc1sc(CCC(=O)CSCCCc2ccccc2)nc1CCc1ccccc1 [Trisubsituted thiazole, 20]
- IC50 [1]: > 33 µM
- IC50 [2]: > 50 µM

SMILES: NC(=O)CCc1sc(CCC(=O)CSCCCc2ccccc2)nc1CCc1ccccc1 [Trisubsituted thiazole, 17]
- IC50 [1]: > 33 µM
- IC50 [2]: > 50 µM

SMILES: O=C(CCc1nc(CCc2ccccc2)c(CCCO)s1)CSCCCc1ccccc1 [Trisubsituted thiazole, 15]
- IC50 [1]: > 12.5 µM
- IC50 [2]: > 50 µM

SMILES: NC(=O)CCc1sc(NC(=O)CSCCCc2ccccc2)nc1/C=C/c1ccccc1 [Trisubsituted thiazole, 23]
- IC50 [1]: 15.3 µM

SMILES: O=C(C=Cc1nc(CCc2ccccc2)c(CCCO)s1)CSCCCc1ccccc1 [Trisubsituted thiazole, 14]
- IC50 [1]: 6.6 µM
- IC50 [2]: 29.4 µM

SMILES: O=CCCc1sc(CCC(=O)CSCCCc2ccccc2)nc1CCc1ccccc1 [Trisubsituted thiazole, 16]
- IC50 [1]: 39.1 µM
- IC50 [2]: > 50 µM

SMILES: O=C(CCc1nc(CO)c(CCc2ccccc2)s1)CSCCCc1ccccc1 [Trisubsituted thiazole, 29]
- IC50 [1]: > 12.5 µM
- IC50 [2]: > 50 µM

SMILES: CC(=O)OCc1nc(CCC(=O)CSCCCc2ccccc2)sc1CCc1ccccc1 [Trisubsituted thiazole, 30]
- IC50 [1]: > 33 µM
- IC50 [2]: > 50 µM
